≈ marks a conversion by molar mass, not a printed value.
Columns and labels:
Protein kinase C (PKC) = test: Inhibition of rat brain protein kinase C
KB = test: Growth inhibition of human KB cells by MTT assay; format: functional, cell-based

| Structure (SMILES) | IC50 (Protein kinase C (PKC)) [µg/mL] | IC50 (KB) [µg/mL] |
| --- | --- | --- |
| CCCCn1c2nc(=O)[nH]c(=O)c-2cc2ccccc21 | 89.7 (≈ 333 µM) | > 10 |
| O=c1nc2n(-c3ccccc3)c3ccccc3cc-2c(=O)n1-c1ccccc1 | > 100 | > 10 |
| C[C@H]1CNCCN1S(=O)(=O)c1cccc2cnccc12 | 38.4 (≈ 132 µM) |  |
| CCCn1c2nc(=O)n(C)c(=O)c-2cc2ccccc21 | 46 (≈ 171 µM) | > 10 |
| CCn1c2nc(=O)n(-c3ccccc3)c(=O)c-2cc2ccccc21 | 53.3 (≈ 168 µM) | > 10 |
| CCCCCCCCCCCCn1c2nc(=O)[nH]c(=O)c-2cc2ccc(Cl)cc21 | > 100 | > 10 |
| O=c1nc2n(-c3ccccc3)c3ccccc3cc-2c(=O)[nH]1 | > 100 | > 10 |
| CCn1c2nc(-c3ccccc3)nc(=O)c-2cc2ccccc21 | 12.9 (≈ 42.8 µM) |  |
| CCCCn1c2nc(-c3ccccc3)nc(=O)c-2cc2ccccc21 |  | 2.53 (≈ 7.68 µM) |
| CCn1c2nc(=O)n(C)c(=O)c-2cc2ccccc21 | 46.6 (≈ 183 µM) | > 10 |
| Cn1c(=O)nc2n(-c3ccccc3)c3ccccc3cc-2c1=O | > 100 | > 10 |
| Cn1c2nc(N)nc(=O)c-2cc2ccccc21 | 14.8 (≈ 65.4 µM) |  |
| CCCCn1c2nc(=O)n(C)c(=O)c-2cc2ccccc21 | 23.9 (≈ 84.4 µM) | > 10 |
| Cn1c2nc(-c3ccccc3)nc(=O)c-2cc2ccccc21 | 3.54 (≈ 12.3 µM) |  |
| Cc1ccc2c(c1)cc1c(=O)nc(-c3ccccc3)nc-1n2C | 4.55 (≈ 15.1 µM) | 1.17 (≈ 3.88 µM) |
| Cc1ccc2c(c1)cc1c(=O)n(C)c(=O)nc-1n2-c1ccccc1 | 26.4 (≈ 83.2 µM) | > 10 |
| Nc1ccn([C@@H]2O[C@H](CO)[C@@H](O)[C@@H]2O)c(=O)n1 [CYTARABINE] |  | 0.14 (≈ 0.576 µM) |
| Cn1c2nc(=O)n(-c3ccccc3)c(=O)c-2cc2ccccc21 | 60.1 (≈ 198 µM) | > 10 |
| CCn1c2nc(=O)[nH]c(=O)c-2cc2cc(C)ccc21 | 10 (≈ 39.2 µM) | > 10 |

From ChEMBL document CHEMBL1156703, “Antitumor studies -- part 2: structure-activity relationship study for flavin analogs including investigations on their in vitro antitumor assay and docking simulation into protein tyrosine kinase” (Eur J Med Chem, 2008)
